According to US20050208290A1, “Thick radiation sensitive devices” (priority 2003, published 2005):

Test: preliminary toxicity study
Conditions: no details given

## CCCCCCNC(=O)OCC#CC#CCOC(=O)NCCCCCC [compound 166, 2,4-hexadiyn-1,6-bis(n-hexylurethane)]
  toxicity: nontoxic
